Experiments:
[1] = tested on: binding site 2 of the sodium channel; assay: BTX binding, sodium channel; settings: 10 μM, percentage inhibition, [3H]-batrachotoxin A20 α-benzoate 10 nM, rat cerebral cortex synaptosomes
In short: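 Rat cerebral cortex synaptosomes incubated with 10 nM [^3H]-batrachotoxin A20 α-benzoate at 37° C for 120 min; non-specific binding defined with 0.3 mM veratridine. IC50 values converted to Ki via Cheng-Prusoff; means±SEM of 3 independent series run in triplicate.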

[2] = tested on: benzothiazepine binding site of the L-type calcium channel; assay: Diltiazem binding, L calcium channel; parameters: species or system rat; settings: 10 μM, percentage inhibition, [3H]-cis-(+)-diltiazem 5 nM, rat cerebral cortex membranes
In short: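 Rat cerebral cortex membranes incubated with [^3H]-cis-(+)-diltiazem (5 nM) for 20 min at 25° C; nonspecific binding defined with (±)-diltiazem (10^−6 M). Bound ligand collected by GF/B filtration and counted; IC50 values converted to Ki by Cheng-Prusoff.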

NA transporter = target: T1, NA transporter (Rattus norvegicus, UniProt Q63380); assay: synaptosomal noradrenaline uptake inhibition (NA uptake inhibition); format: biochemical; settings: for inhibition at 1 µM: read-out: NA Uptake Inhibition at 1 μM, 1 μM in the assay, synaptosomes from rat hypothalamus; for NA Uptake Inhibition at 1 μM: 1 μM in the assay, synaptosomes from rat hypothalamus
T1 construct: synaptosomes are isolated fresh from rat brains; from tissue; host or cells: rat hypothalamus synaptosomes (P2 fraction)
In short: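 IC50 values converted to Ki via Cheng-Prusoff; Km by Lineweaver-Burk. N=4 independent series, each in triplicate, mean ± SEM.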

[3] = tested on: phenylquinone-induced writhing reaction; assay: phenylquinone-induced writhing test in mice; format: in vivo; settings: male NMRI mice, phenylquinone i.p. 10 minutes later; for inhibition in vivo at 10 mg/kg: Mus musculus, iv, 10 min, 10 mg/kg intravenously
In short: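 Male NMRI mice (25–30 g, n=10/group) received test substance i.v. at 10 mg/kg, then 0.02% phenylquinone i.p. 10 min later. Writhing reactions were counted 5–20 min after phenylquinone; % inhibition is relative to saline-treated controls.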

T1 sequence (Q63380 1-617): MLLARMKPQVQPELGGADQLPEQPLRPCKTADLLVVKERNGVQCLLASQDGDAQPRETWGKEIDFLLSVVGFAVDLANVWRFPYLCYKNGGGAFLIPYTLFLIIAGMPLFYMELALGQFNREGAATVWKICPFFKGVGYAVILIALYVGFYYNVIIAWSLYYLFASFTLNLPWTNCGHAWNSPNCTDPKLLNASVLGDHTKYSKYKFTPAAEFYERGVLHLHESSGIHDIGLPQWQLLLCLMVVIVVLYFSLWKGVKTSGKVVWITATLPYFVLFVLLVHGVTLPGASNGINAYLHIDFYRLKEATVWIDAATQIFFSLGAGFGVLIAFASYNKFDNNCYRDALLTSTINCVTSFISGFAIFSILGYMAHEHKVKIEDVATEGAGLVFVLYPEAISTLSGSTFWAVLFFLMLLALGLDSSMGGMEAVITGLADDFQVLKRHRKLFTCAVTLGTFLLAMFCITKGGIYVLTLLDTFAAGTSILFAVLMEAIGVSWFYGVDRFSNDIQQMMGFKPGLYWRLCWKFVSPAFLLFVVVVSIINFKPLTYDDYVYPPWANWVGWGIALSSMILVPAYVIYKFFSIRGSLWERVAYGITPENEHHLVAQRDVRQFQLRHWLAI

SMILES | BTX Binding at 10 μM [1] | Diltiazem Binding at 10 μM [2] | inhibition at 1 µM (NA transporter) | inhibition in vivo at 10 mg/kg [3] | NA Uptake Inhibition at 1 μM (NA transporter) | % Inhibition of the writhing reaction at 10 mg/kg intravenously [3] | BTX Binding at 10 μM ([1]; hydrochloride) | Diltiazem Binding at 10 μM ([2]; hydrochloride) | NA Uptake Inhibition at 1 μM (NA transporter; hydrochloride) | % Inhibition of the writhing reaction at 10 mg/kg intravenously ([3]; hydrochloride, 10 mg/kg)
CN(C)C(c1ccccc1)C1CC(c2ccccc2)CCC1(O)Cc1ccccc1.Cl (centres unmarked) [Example 72, 1-benzyl-2-(dimethylaminophenylmethyl)-4-phenylcyclohexanol, hydrochloride] | 99% | 97% | 64% | 89% | – | – | – | – | – | –
CN(C)C(c1ccccc1)C1CCCCC1(O)c1ccc(Br)cc1.Cl (centres unmarked) [Example 73] | 93% | 89% | – | – | 61% | 75% | – | – | – | –
CN(C)C(c1ccccc1)C1CCCCC1(O)c1cccc2ccccc12.Cl (centres unmarked) [Example 74, 2-(dimethylaminophenylmethyl)-1-naphthalene-1-ylcyclohexanol, hydrochloride] | 93% | 83% | 24% | 37% | – | – | – | – | – | –
CSc1ccccc1C1(O)CCCCC1C(c1ccccc1)N(C)C.Cl (centres unmarked) [Example 75, 2-(dimethylaminophenylmethyl)-1-(2-methylsulfanylphenyl)cyclohexanol, hydrochloride] | 93% | 89% | 0% | 57% | – | – | – | – | – | –
CN(C)C(c1ccc2ccccc2c1)C1CCCCC1(O)Cc1ccccc1.Cl (centres unmarked) [Example 76, 1-benzyl-2-(dimethylaminonaphthalene-2-ylmethyl)cyclohexanol, hydrochloride] | 90% | 73% | 80% | 60% | – | – | – | – | – | –
CN(C)C(c1c(F)c(F)c(F)c(F)c1F)C1CCCCC1(O)Cc1ccccc1.Cl (centres unmarked) [Example 77, 1-benzyl-2-(dimethylaminopentafluorophenylmethyl)cyclohexanol, hydrochloride] | 56% | 27% | 27% | 54% | – | – | – | – | – | –
Cl.OC1(Cc2ccccc2)CCCCC1C(c1ccccc1)N1CCCCC1 (centres unmarked) [Example 78, 1-benzyl-2-(phenylpiperidin-1-ylmethyl)cyclohexanol, hydrochloride] | 96% | 95% | 84% | 73% | – | – | – | – | – | –
CN(C)C(c1ccccc1)C1CCCCC1(O)c1ccc(C(F)(F)F)cc1.Cl (centres unmarked) [Example 79] | 93% | 67% | – | – | 58% | 71% | – | – | – | –
CCC(O)(Cc1ccc(C(C)(C)C)cc1)C(C)C(c1ccccc1)N(C)C.Cl (centres unmarked) [Example 80] | 100% | 100% | – | – | 18% | 61% | – | – | – | –
Cc1ccccc1C(C1CCCCC1(O)c1ccccc1)N(C)C.Cl (centres unmarked) [Example 81, 2-(dimethylamino-o-tolylmethyl)-1-phenylcyclohexanol, hydrochloride] | – | – | – | – | – | – | 99% | 83% | 66% | 75%
CN(C)C(c1cccs1)C1CCCCC1(O)Cc1ccc(C(C)(C)C)cc1.Cl (centres unmarked) [Example 82, 1-(4-tert.-butylbenzyl)-2-[dimethylaminothiophen-2-ylmethyl]cyclohexanol, hydrochloride] | 98% | 85% | 0% | 100% | – | – | – | – | – | –

Source: patent US6410790B1, “3-amin3-arylpropan-1-ol compounds, their preparation and use” (priority 1999, dated 2002)
